According to ChEMBL document CHEMBL5149973, “Agaricus bisporus-Derived Glucosamine Hydrochloride Facilitates Skeletal Injury Repair through Bmp Signaling in Zebrafish Osteoporosis Model” (J Nat Prod, 2021):
Calls of active or inactive are those of the source. The rule behind the calls is not given here.

Legend:
Danio rerio [1] = species: Danio rerio; assay: Induction of Zebrafish embryo skeletal development assessed as increase in gfp expression level in ventral head at 0.05 to 0.3 % measured at 24 to 72 hrs post fertilization by DAPI staining based analysis; format: functional, tissue-based; conditions: dose 0.05-0.3 %, time 24-72 hrs
Osteoblast [2] = assay: Induction of osteoblast differentiation in Zebrafish embryo assessed as upregulation of sox9a gene expression in head measured at 0.75 to 72 hrs post fertilization at 0.05 to 0.3 % by […] analysis; format: functional; conditions: Danio rerio, dose 0.05-0.3 %, time 0.75-72 hrs
Danio rerio [3] = species: Danio rerio; assay: Induction of transgenic Zebrafish embryo skeletal development assessed as increase in GFP expression level in head at 0.05 to 0.3 % measured at 24 to 72 hrs post fertilization by DAPI staining based analysis; format: functional, tissue-based; conditions: dose 0.05-0.3 %, time 24-72 hrs
Danio rerio [4] = species: Danio rerio; assay: Anti-osteoporosis activity in FAC-induced skeletal injury Zebrafish assessed as rescue of skeletal density in head at 0.1 % measured for 10 day post fertilization; format: functional, organism-based
[5] = Induction of Zebrafish embryo skeletal development assessed as fatality rate measured at percentage concentration incubated after 72 hrs post fertilization by Alcian blue staining based assay; format: functional, Danio rerio
Danio rerio [6] = species: Danio rerio; assay: Induction of Zebrafish embryo skeletal development assessed as increase in Bmp4 mRNA expression level in bud region at 0.1 to 0.3 % measured at 24 hrs post fertilization by ISH analysis; format: functional, tissue-based; conditions: dose 0.1-0.3 %
Danio rerio [7] = species: Danio rerio; assay: Induction of Zebrafish embryo skeletal development assessed as increase in Bmp4 mRNA expression level in gastrula stage at 0.05 to 0.1 % measured at 24 hrs post fertilization by ISH analysis; format: functional, tissue-based; conditions: dose 0.05-0.1 %
Osteoblast [8] = assay: Induction of osteoblast differentiation in transgenic osx mCherry Zebrafish embryo assessed as increase in sp7 mRNA expression in distal fin rays at 0.1 % measured after 6 days by ISH analysis; format: functional; conditions: Danio rerio, time 6.0 day
Osteoblast [9] = assay: Induction of osteoblast differentiation in transgenic osx mCherry Zebrafish embryo assessed as increase in Col1a2 mRNA expression in fin at 0.1 % measured after 15 days by semiquantitative PCR analysis; format: functional, tissue-based; conditions: Danio rerio, time 15.0 day
Danio rerio [10] = species: Danio rerio; assay: Induction of Zebrafish embryo skeletal development assessed as increase in Bmp2b mRNA expression level in head at 0.1 to 0.3 % measured at 24 hrs post fertilization by ISH analysis; format: functional, tissue-based; conditions: dose 0.1-0.3 %
Danio rerio [11] = species: Danio rerio; assay: Induction of Zebrafish embryo skeletal development assessed as nuclear localization of p-Smad5 in head at 0.1 % measured at 24 to 72 hrs post fertilization by DAPI staining based analysis; format: functional, tissue-based; conditions: time 24-72 hrs
[12] = Induction of Zebrafish embryo skeletal development assessed as ventralized embryos at 0.3 % measured at 24 hrs post fertilization relative to control; format: functional, Danio rerio
Danio rerio [13] = species: Danio rerio; assay: Induction of Zebrafish Larva caudal fin regeneration assessed as increase in bone mass measured for 15 days by Calcein staining based assay; format: functional; conditions: time 15.0 day
Danio rerio [14] = species: Danio rerio; assay: Suppression of Bmp signaling in mCherry Zebrafish embryos assessed as increase in colocalization in tail by measuring fluorescence intensity at 0.1 % measured at 36 hrs post fertilization; format: functional, organism-based; conditions: Embryo
Osteoblast [15] = assay: Induction of osteoblast differentiation in Zebrafish embryo assessed as upregulation of runx2b gene expression in parasphenoid measured at 0.75 to 72 hrs post fertilization at 0.05 to 0.3 % by […] analysis; format: functional; conditions: Danio rerio, dose 0.05-0.3 %, time 0.75-72 hrs
Danio rerio [16] = species: Danio rerio; assay: Induction of Zebrafish embryo skeletal development assessed as upregulation of […] gene expression in dent at 0.01 to 0.3 % measured after 72 hrs post fertilization by […] analysis; format: functional, tissue-based; conditions: dose 0.01-0.3 %
Danio rerio [17] = species: Danio rerio; assay: Induction of Zebrafish embryo skeletal development assessed as increase in gfp expression level in tail at 0.05 to 0.3 % measured at 24 to 72 hrs post fertilization by DAPI staining based analysis; format: functional, tissue-based; conditions: dose 0.05-0.3 %, time 24-72 hrs
Danio rerio [18] = species: Danio rerio; assay: Suppression of Bmp signaling in Zebrafish tBr injected mRNA embryos assessed as reduction in slight loss of tail tissue at 2.5 uM measured at 26 hrs post fertilization; format: functional, Embryo; parameters: scale not given: the % may be the effect or the level left
Danio rerio [19] = species: Danio rerio; assay: Induction of Zebrafish embryo skeletal development assessed as increase in Bmp2b mRNA expression level in bud region at 0.1 to 0.3 % measured at 24 hrs post fertilization by ISH analysis; format: functional, tissue-based; conditions: dose 0.1-0.3 %
Osteoblast [20] = assay: Induction of osteoblast differentiation in Zebrafish embryo assessed as upregulation of sox9b gene expression in head measured at 0.75 to 72 hrs post fertilization at 0.05 to 0.3 % by ELISA analysis; format: functional, tissue-based; conditions: Danio rerio, dose 0.05-0.3 %, time 0.75-72 hrs
[21] = Induction of Zebrafish Larva cartilage development assessed as increase in bone mineralization at 0.1 % measured at 6 days post fertilization by Alizarin red staining based assay; format: functional, Danio rerio; conditions: time 6 day
Danio rerio [22] = species: Danio rerio; assay: Suppression of Bmp signaling in Zebrafish embryos assessed as decrease in Col10a1a gene expression level at 0.1 % measured at 26 hrs post fertilization by semiquantitative PCR analysis; format: functional, tissue-based; conditions: Embryo
Danio rerio [23] = species: Danio rerio; assay: Induction of Zebrafish embryo skeletal development assessed as Bmp2b localization in cytoplasm at 0.1 % measured at 24 to 72 hrs post fertilization; format: functional, tissue-based; conditions: time 24-72 hrs
[24] = Induction of Zebrafish Larva cartilage development assessed as increase in H3 phenotype ratio at 0.05 % measured after 5 days post fertilization by Alcian blue staining based assay; format: functional, Danio rerio; conditions: time 5 day
Danio rerio [25] = species: Danio rerio; assay: Anti-osteoporosis activity in FAC-induced skeletal injury Zebrafish larvae assessed as increase in BGP mRNA expression level measured for 10 day post fertilization by semiquantitative-PCR analysis; format: functional, organism-based; conditions: Larva
Danio rerio [26] = species: Danio rerio; assay: Induction of Zebrafish embryo skeletal development assessed as nuclear localization of p-Smad5 in tail at 0.1 % measured at 24 to 72 hrs post fertilization by DAPI staining based analysis; format: functional, tissue-based; conditions: time 24-72 hrs
Danio rerio [27] = species: Danio rerio; assay: Suppression of Bmp signaling in Zebrafish embryos assessed as decrease in Bmp4 gene expression level at 0.1 % measured at 26 hrs post fertilization by semiquantitative PCR analysis; format: functional, tissue-based; conditions: Embryo
[28] = Induction of Zebrafish embryo skeletal development assessed as mortality rate of embryo at 0.05 % measured after 72 hrs post fertilization by Alcian blue staining based assay; format: functional, Danio rerio
Danio rerio [29] = species: Danio rerio; assay: Suppression of Bmp signaling in Zebrafish embryo assessed as reduction in indistinctive tail tissue at 0.1 % measured at 26 hrs post fertilization in presence of dorsomorphin; format: functional; parameters: scale not given: the % may be the effect or the level left
Danio rerio [30] = species: Danio rerio; assay: Anti-osteoporosis activity in FAC-induced skeletal injury Zebrafish larvae assessed as increase in Col1a2 mRNA expression level measured for 10 day post fertilization by semiquantitative-PCR analysis; format: functional, organism-based; conditions: Larva
Danio rerio [31] = species: Danio rerio; assay: Suppression of Bmp signaling in Zebrafish embryos assessed as decrease in Sox9b gene expression level at 0.1 % measured at 26 hrs post fertilization by semiquantitative PCR analysis; format: functional, tissue-based; conditions: Embryo
Danio rerio [32] = species: Danio rerio; assay: Induction of Zebrafish embryo skeletal development assessed as increase in Smad1 gene expression level in coccygeal vertebra at 0.1 % measured for 0.75 to 24 hrs post fertilization by ISH analysis; format: functional, tissue-based; conditions: time 0.75-24 hrs
Danio rerio [33] = species: Danio rerio; assay: Induction of Zebrafish embryo skeletal development assessed as nuclear localization of p-Smad1 in tail at 0.1 % measured at 24 to 72 hrs post fertilization by DAPI staining based analysis; format: functional, tissue-based; conditions: time 24-72 hrs
Danio rerio [34] = species: Danio rerio; assay: Anti-osteoporosis activity in FAC-induced skeletal injury Zebrafish assessed as increase in cumulative bone optical density in spine at 0.1 % measured for 10 day post fertilization; format: functional, organism-based

**Q.** What does the source list for `Cl.N[C@@H]1[C@@H](O)[C@H](O)[C@@H](CO)O[C@H]1O`?
**A.** Activity (Danio rerio [1]): Active; Activity (Osteoblast [2]): Active; Activity (Danio rerio [3]): Active; Activity (Danio rerio [4]): Active; IC50 [5]: 0.324%; Activity (Danio rerio [6]): Active; Activity (Danio rerio [7]): Active; Activity (Osteoblast [8]): Active; Activity (Osteoblast [9]): Active; Activity (Danio rerio [10]): Active; Activity (Danio rerio [11]): Active; Activity [12]: 20%; Activity (Danio rerio [13]): Active; Activity (Danio rerio [14]): Active; Activity (Osteoblast [15]): Active; Activity (Danio rerio [16]): Active; Activity (Danio rerio [17]): Active; Activity (Danio rerio [18]): 80%; Activity (Danio rerio [19]): Active; Activity (Osteoblast [20]): Active; Activity [21]: 88%; Activity (Danio rerio [22]): Active; Activity (Danio rerio [23]): Active; Activity [24]: 40%; Activity (Danio rerio [25]): Active; Activity (Danio rerio [26]): Active; Activity (Danio rerio [27]): Active; Activity [28]: 16%; Activity (Danio rerio [29]): 20%; Activity (Danio rerio [30]): Active; Activity (Danio rerio [31]): Active; Activity (Danio rerio [32]): Active; Activity (Danio rerio [33]): Active; Activity (Danio rerio [34]): Active
